According to paper PMC10953372 (2023):

Columns and labels:
[1] = tested on: Neomycin-bindender Riboschalter (2FA-markiert) (RNA, riboswitch, 2-fluoroadenine at 16, 17 and 24) GGCUGCUUGUCCUUUAAUGGUCCAGCC; assay: 19F NMR titration and CEST; details: 303 K; 215-1200 µM samples, 1 to 1.5 equivalents of ligand
[2] = tested on: Neomycin-bindender Riboschalter (2FA-markiert) (RNA, riboswitch, 2-fluoroadenine at 16, 17 and 24) GGCUGCUUGUCCUUUAAUGGUCCAGCC; assay: 19F NMR CEST; details: 303 K; derived from kex = [L]kon + koff = 88 ± 8 s^-1; subsaturating ligand

binding [1]	koff [2]	Compound
yes		NC[C@@H]1O[C@H](O[C@H]2[C@@H](O)[C@H](O[C@@H]3[C@@H](O)[C@H](N)C[C@H](N)[C@H]3O[C@H]3O[C@H](CN)[C@@H](O)[C@H](O)[C@H]3N)O[C@@H]2CO)[C@H](N)[C@@H](O)[C@@H]1O
	~ 1.4 s^-1	NC[C@H]1O[C@H](O[C@H]2[C@H](O[C@@H]3O[C@H](CO)[C@@H](O)[C@H]3O)[C@@H](O)[C@H](N)C[C@@H]2N)[C@H](N)[C@@H](O)[C@@H]1O
